ChEMBL document CHEMBL5725372, “Inhibitors of sodium glucose cotransporter 1” (2017)

Biological target: T1, Sodium/glucose cotransporter 2 (Homo sapiens, UniProt P31639)
T1 sequence (P31639 whole entry): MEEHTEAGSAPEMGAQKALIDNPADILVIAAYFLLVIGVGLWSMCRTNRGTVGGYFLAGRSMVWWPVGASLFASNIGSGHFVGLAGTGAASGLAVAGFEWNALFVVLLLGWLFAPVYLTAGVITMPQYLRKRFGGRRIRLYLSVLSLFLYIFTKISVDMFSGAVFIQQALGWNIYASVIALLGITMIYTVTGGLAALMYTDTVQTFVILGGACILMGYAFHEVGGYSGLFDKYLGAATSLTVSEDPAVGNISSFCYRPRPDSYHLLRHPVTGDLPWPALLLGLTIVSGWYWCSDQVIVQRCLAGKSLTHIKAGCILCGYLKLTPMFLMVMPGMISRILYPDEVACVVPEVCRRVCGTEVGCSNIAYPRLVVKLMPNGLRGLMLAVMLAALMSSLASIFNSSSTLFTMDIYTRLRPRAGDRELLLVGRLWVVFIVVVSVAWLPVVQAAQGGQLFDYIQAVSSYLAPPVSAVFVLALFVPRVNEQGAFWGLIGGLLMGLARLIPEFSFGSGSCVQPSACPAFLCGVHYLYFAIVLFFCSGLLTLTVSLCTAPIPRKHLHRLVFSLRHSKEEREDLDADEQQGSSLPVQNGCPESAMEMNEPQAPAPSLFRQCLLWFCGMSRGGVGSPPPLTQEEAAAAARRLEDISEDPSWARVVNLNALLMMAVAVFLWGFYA
Assay: In Vitro Human SGLT2 Inhibition Assay: Human sodium/glucose co-transporter type 2 (SGLT2; accession number P31639; GI:400337) was cloned into pIRESpuro2 vector for mammalian expression (construct: HA-SGLT2-pIRESpuro2). HEK293 cells were transfected with the human HA-SGLT2-pIRESpuro2 vector and the bulk stable cell line was selected in presence of 0.5 μg/mL of puromycin. Human HA-SGLT2 cells were maintained in DMEM media containing 10% FBS, 1% GPS and 0.5 μg/mL of puromycin. The HEK293 cells expressing the human HA-SGLT2 were seeded in 384 well plates (30,000 cells/well) in DMEM media containing 10% FBS, 1% GPS and 0.5 μg/mL of puromycin, then incubated overnight at 37 C, 5% CO2. Cells were then washed with uptake buffer (140 mM NaCl, 2 mM KCl, 1 mM CaCl2, 1 mM MgCl2, 10 mM HEPES, 5 mM Tris, 1 mg/mL bovine serum albumin (BSA), pH 7.3). Twenty microliters of uptake buffer with or without testing compounds were added to the cells. Then, 20 microliters of uptake buffer containing 14C-AMG (100 nCi) were added to the cells. The cell plates were incubated at 37° C., 5% CO2 for 1-2 hours. After washing the cells with uptake buffer, scintillation fluid was added (40 microliters/well) and 14C-AMG uptake was measured by counting radioactivity using a scintillation coulter ([…]; Packard Instruments).

CS[C@H]1O[C@@H](c2ccc(C)c(Cc3ccc(OCCNC(=O)NC(C)(C)CO)cc3)c2)[C@H](O)[C@@H](O)[C@@H]1O
IC50: < 10 nM
